Data reported in patent US12162819B2, “Ionizable lipid compounds” (Beijing Jitai Pharmaceutical Technology Co., Ltd., priority 2022, dated 2024).

How the values were obtained:
[1] = Particle size and PDI of lipid nanoparticles by dynamic light scattering; type: physicochemical; conditions: lipid nanoparticle with the cationic lipid, cholesterol, DSPC, DMG-PEG2000 (50/38.5/10/1.5 mol%), luciferase mRNA, N/P 6
Description: (§1) Lipid nanoparticles were prepared by (1) dissolving and mixing ionizable lipid compounds, cholesterol, phospholipids and polyethylene glycolated lipids in ethanol at (molar percentages) 50%, 38.5%, 10% and 1.5%, respectively; (2) dissolving the mRNA active ingredient in 25 mM sodium acetate solution (pH=4.5); (3) using an automated high-throughput microfluidic system to mix the organic phase containing the lipid mixture and the aqueous phase containing the mRNA component in the flow ratio range of 1:1 to 1:4 at a mixing speed of 10 mL/min to 18 mL/min; (4) the prepared lipid nanoparticles (N/P ratio of 6) were diluted with phosphate buffer solution and the nanoparticle solutions were ultrafiltered to the original preparation volume using ultrafiltration tubes (purchased from Millipore) with a cut-off molecular weight of 30 kDa; and (5) the obtained nanoparticles were filtered through a sterile 0.2 μm filter membrane and then stored in a sealed glass vial at low temperature.
(§2) The particle size and particle size dispersity index (PDI) of the prepared lipid nanoparticles were measured using a Zetasizer Pro (purchased from Malvern Instruments Ltd) and a DynaPro NanoStar (purchased from Wyatt) dynamic light scattering instrument. The degree of RNA encapsulation by lipid nanoparticles was characterized by the Encapsulation Efficiency %, which reflects the degree of binding of lipid nanoparticles to RNA fragments. This parameter was measured by the method of Quant-It™ RiboGreen RNA Assay (purchased from Invitrogen). Lipid nanoparticle samples were diluted in TE buffer (10 mM Tris-HCl, 1 mM EDTA, pH=7.5). A portion of the sample solution was removed, to which 0.5% Triton (Triton X-100) was added, and then allowed to stand at 37° C. for 30 minutes. Immediately after the addition of RIBOGREEN® reaction solution, the fluorescence values were read on a Varioskan LUX multifunctional microplate reader (purchased from Thermofisher) at 485 nm for absorption and 528 nm for emission to give the encapsulation efficiency values.

[2] = Encapsulation efficiency of lipid nanoparticles, Quant-It RiboGreen RNA Assay; type: physicochemical; conditions: lipid nanoparticle with the cationic lipid, luciferase mRNA
Description: as §1, §2

CCCCCCC#CCCOC(=O)C(C)(C)CCCCCC(CCCCCC(C)(C)C(=O)OCCC#CCCCCCC)OC(=O)CCCN(C)C [Compound 24]
Particle size (nm) [1]: 133.72 nm | Particle size dispersity (PDI) [1]: 0.04 | Encapsulation efficiency (%) [2]: 60.98%

CCCCCCCCCCSC(=O)C(C)(C)CCCCCC(CCCCCC(C)(C)C(=O)SCCCCCCCCCC)OC(=O)CCCCCN(C)C [Compound 36]
Particle size (nm) [1]: 88.33 nm | Particle size dispersity (PDI) [1]: 0.07 | Encapsulation efficiency (%) [2]: 97.52%

CCCCCCCCCCOC(=O)C(C)(C)CCCCCC(CCCCCC(C)(C)C(=O)OCCCCCCCCCC)OC(=O)CN(C)C [Compound 17]
Particle size (nm) [1]: 81.43 nm | Particle size dispersity (PDI) [1]: 0.12 | Encapsulation efficiency (%) [2]: 30.95%

CCCCCCCCCCSC(=O)C(C)(C)CCCCCC(CCCCCC(C)(C)C(=O)SCCCCCCCCCC)OC(=O)CCCN(C)C [Compound 34]
Particle size (nm) [1]: 104.71 nm | Particle size dispersity (PDI) [1]: 0.04 | Encapsulation efficiency (%) [2]: 90.29%

CCCCCCCC(CCCCCCC)COC(=O)CCC(C)(C)CCCC(CCCC(C)(C)CCC(=O)OCC(CCCCCCC)CCCCCCC)OC(=O)CCCN(C)C [Compound 129]
Particle size (nm) [1]: 112.08 nm | Particle size dispersity (PDI) [1]: 0.06 | Encapsulation efficiency (%) [2]: 57.87%

CCCCCCCCOC(=O)C(C)(C)CCCCCC(CCCCCC(C)(C)C(=O)OCCCCCCCC)OC(=O)CCCN(C)C [Compound 19]
Particle size (nm) [1]: 135.15 nm | Particle size dispersity (PDI) [1]: 0.19 | Encapsulation efficiency (%) [2]: 67.96%

CCCCCCCCCCCCNC(=O)C(C)(C)CCCCCC(CCCCCC(C)(C)C(=O)NCCCCCCCCCCCC)OC(=O)CCN(C)C [Compound 10]
Particle size (nm) [1]: 118.59 nm | Particle size dispersity (PDI) [1]: 0.07 | Encapsulation efficiency (%) [2]: 53.83%

CCCCCCCCC(CCCCCCCC)NC(=O)C(C)(C)CCCCCC(CCCCCC(C)(C)C(=O)NC(CCCCCCCC)CCCCCCCC)OC(=O)CCN(C)C [Compound 11]
Particle size (nm) [1]: 46.49 nm | Particle size dispersity (PDI) [1]: 0.03 | Encapsulation efficiency (%) [2]: 95.61%

CCCCCCCCCCSC(=O)C(C)(C)CCCCCC(CCCCCC(C)(C)C(=O)SCCCCCCCCCC)OC(=O)CCN(C)C [Compound 33]
Particle size (nm) [1]: 105.84 nm | Particle size dispersity (PDI) [1]: 0.04 | Encapsulation efficiency (%) [2]: 88.67%

CCCCCCCCCOC(=O)C(C)(C)CCCCCCC(CCCCCCC(C)(C)C(=O)OCC(CCCCC)CCCCCCC)OC(=O)CCCN(C)C (stereo not drawn) [Compound 125]
Particle size (nm) [1]: 95.69 nm | Particle size dispersity (PDI) [1]: 0.07 | Encapsulation efficiency (%) [2]: 89.45%

CCCCCCCCCCOC(=O)C(C)(C)CCCCCC(CCCCCC(C)(C)C(=O)OCCCCCCCCCC)OC(=O)CCN1CCCC1 [Compound 92]
Particle size (nm) [1]: 107.56 nm | Particle size dispersity (PDI) [1]: 0.05 | Encapsulation efficiency (%) [2]: 91.66%

CCCCCCCCCOC(=O)C(C)(C)CCCCC(CCCCC(C)(C)C(=O)OCC(CCCCC)CCCCCCC)OC(=O)CCCN(C)C (stereo not drawn) [Compound 122]
Particle size (nm) [1]: 96.72 nm | Particle size dispersity (PDI) [1]: 0.07 | Encapsulation efficiency (%) [2]: 91.76%

CCCCCCCCOC(=O)C(C)(C)CCCCCC(CCCCCC(C)(C)C(=O)OCCCCCCCC)OC(=O)CCN(C)C [Compound 2]
Particle size (nm) [1]: 229.35 nm | Particle size dispersity (PDI) [1]: 0.03 | Encapsulation efficiency (%) [2]: 79.14%

CCCCCCCCOC(=O)C(C)(C)CCCCCC(CCCCCC(C)(C)C(=O)OCCCCCCCC)OC(=O)C1CCN(C(C)C)CC1 [Compound 101]
Particle size (nm) [1]: 152.45 nm | Particle size dispersity (PDI) [1]: 0.06 | Encapsulation efficiency (%) [2]: 76.09%

CCCCCCC(CCCCCC)CCOC(=O)CCC(C)(C)CCCC(CCCC(C)(C)CCC(=O)OCCC(CCCCCC)CCCCCC)OC(=O)CCCN(C)C [Compound 128]
Particle size (nm) [1]: 83.10 nm | Particle size dispersity (PDI) [1]: 0.05 | Encapsulation efficiency (%) [2]: 79.88%

CCCCCCCC#CCOC(=O)C(C)(C)CCCCCC(CCCCCC(C)(C)C(=O)OCC(CCCCC)CCCCCCC)OC(=O)CCCN(C)C (stereo not drawn) [Compound 116]
Particle size (nm) [1]: 88.62 nm | Particle size dispersity (PDI) [1]: 0.05 | Encapsulation efficiency (%) [2]: 89.36%

CCCCC(CC#CCOC(=O)C(C)(C)CCCCCC(CCCCCC(C)(C)C(=O)OCC#CCC(CCCC)CCCC)OC(=O)CCCN(C)C)CCCC [Compound 117]
Particle size (nm) [1]: 127.31 nm | Particle size dispersity (PDI) [1]: 0.06 | Encapsulation efficiency (%) [2]: 95.29%

CCCCCCCCCNC(=O)C(C)(C)CCCCCC(CCCCCC(C)(C)C(=O)NCCCCCCCCC)OC(=O)CCN(C)C [Compound 9]
Particle size (nm) [1]: 352.82 nm | Particle size dispersity (PDI) [1]: 0.07 | Encapsulation efficiency (%) [2]: 19.41%

CCCCCCCCCCNC(=O)C(C)(C)CCCCCC(CCCCCC(C)(C)C(=O)NCCCCCCCCCC)OC(=O)CCN(C)C [Compound 8]
Particle size (nm) [1]: 127.82 nm | Particle size dispersity (PDI) [1]: 0.07 | Encapsulation efficiency (%) [2]: 60.36%

CCCCCCCCCSC(=O)C(C)(C)CCCCCC(CCCCCC(C)(C)C(=O)SCCCCCCCCC)OC(=O)C1CCN(C(C)C)CC1 [Compound 107]
Particle size (nm) [1]: 99.54 nm | Particle size dispersity (PDI) [1]: 0.05 | Encapsulation efficiency (%) [2]: 83.74%

CCCCCCCCCCOC(=O)C(C)(C)CCCCC(CCCCC(C)(C)C(=O)OCC(CCCCC)CCCCCCC)OC(=O)CCCN(C)C (stereo not drawn) [Compound 123]
Particle size (nm) [1]: 84.98 nm | Particle size dispersity (PDI) [1]: 0.05 | Encapsulation efficiency (%) [2]: 92.27%

CCCCCCCCCOC(=O)C(C)(C)CCCCCC(CCCCCC(C)(C)C(=O)OCCCCCCCCC)OC(=O)C1CCN(C)CC1 [Compound 102]
Particle size (nm) [1]: 102.18 nm | Particle size dispersity (PDI) [1]: 0.03 | Encapsulation efficiency (%) [2]: 90.03%

CCCCCCCCCOC(=O)CCCCCCC(CCCCCCC(=O)OCC(CCCCC)CCCCCCC)OC(=O)CCCN(C)C (stereo not drawn) [Compound D2, reference compound]
Particle size (nm) [1]: 245.33 nm | Particle size dispersity (PDI) [1]: 0.20 | Encapsulation efficiency (%) [2]: 79.63%

CCCCCCCCCOC(=O)C(C)(C)CCCCCCC(CCCCCCC(C)(C)C(=O)OCC(CCCCC)CCCCCCC)OC(=O)CCCCN(C)C (stereo not drawn) [Compound 126]
Particle size (nm) [1]: 133.76 nm | Particle size dispersity (PDI) [1]: 0.06 | Encapsulation efficiency (%) [2]: 94.35%

CC/C=C\CCCCCOC(=O)C(C)(C)CCCCCC(CCCCCC(C)(C)C(=O)OCCCCC/C=C\CC)OC(=O)CCN(C)C [Compound 7]
Particle size (nm) [1]: 203.67 nm | Particle size dispersity (PDI) [1]: 0.04 | Encapsulation efficiency (%) [2]: 69.51%

CCCCCC/C=C\CCOC(=O)C(C)(C)CCCCCC(CCCCCC(C)(C)C(=O)OCC/C=C\CCCCCC)OC(=O)CCCN(C)C [Compound 27]
Particle size (nm) [1]: 105.70 nm | Particle size dispersity (PDI) [1]: 0.05 | Encapsulation efficiency (%) [2]: 88.99%

CCCCCCCC#CCOC(=O)C(C)(C)CCCCCC(CCCCCC(C)(C)C(=O)OCC#CCCCCCCC)OC(=O)CCCN(C)C [Compound 23]
Particle size (nm) [1]: 151.35 nm | Particle size dispersity (PDI) [1]: 0.07 | Encapsulation efficiency (%) [2]: 70.22%

CCCCC#CCCCCOC(=O)C(C)(C)CCCCCC(CCCCCC(C)(C)C(=O)OCCCCC#CCCCC)OC(=O)CCCN(C)C [Compound 25]
Particle size (nm) [1]: 236.90 nm | Particle size dispersity (PDI) [1]: 0.06 | Encapsulation efficiency (%) [2]: 32.43%

CCCCCCCCCCOC(=O)C(C)(C)CCCCCC(CCCCCC(C)(C)C(=O)OCCCCCCCCCC)OC(=O)CCCN(C)C [Compound 18]
Particle size (nm) [1]: 161.29 nm | Particle size dispersity (PDI) [1]: 0.05 | Encapsulation efficiency (%) [2]: 87.86%

CCCCCCCCCN(CCCCCCCCC)C(=O)C(C)(C)CCCCCC(CCCCCC(C)(C)C(=O)N(CCCCCCCCC)CCCCCCCCC)OC(=O)CCN(C)C [Compound 12]
Particle size (nm) [1]: 89.34 nm | Particle size dispersity (PDI) [1]: 0.07 | Encapsulation efficiency (%) [2]: 85.02%

CCCCCCCC#CCOC(=O)C(C)(C)CCCCCC(CCCCCC(C)(C)C(=O)OCCCC(CCCCC)CCCCC)OC(=O)CCCN(C)C (stereo not drawn) [Compound 115]
Particle size (nm) [1]: 77.12 nm | Particle size dispersity (PDI) [1]: 0.04 | Encapsulation efficiency (%) [2]: 91.76%

CCCCCCC/C=C\COC(=O)C(C)(C)CCCCCC(CCCCCC(C)(C)C(=O)OC/C=C\CCCCCCC)OC(=O)CCCN(C)C [Compound 26]
Particle size (nm) [1]: 96.69 nm | Particle size dispersity (PDI) [1]: 0.05 | Encapsulation efficiency (%) [2]: 81.29%

CCCCCCCCCSC(=O)C(C)(C)CCCCCC(CCCCCC(C)(C)C(=O)SCCCCCCCCC)OC(=O)CC1CCN(CC)CC1 [Compound 109]
Particle size (nm) [1]: 101.04 nm | Particle size dispersity (PDI) [1]: 0.06 | Encapsulation efficiency (%) [2]: 87.11%

CCCCCCCCCSC(=O)C(C)(C)CCCCCC(CCCCCC(C)(C)C(=O)OCC(CCCCC)CCCCCCC)OC(=O)CC1CCN(C)CC1 (stereo not drawn) [Compound 112]
Particle size (nm) [1]: 121.05 nm | Particle size dispersity (PDI) [1]: 0.08 | Encapsulation efficiency (%) [2]: 94.41%

CCCCCCC#CCOC(=O)C(C)(C)CCCCCC(CCCCCC(C)(C)C(=O)OCCCCCCCCC)OC(=O)CCCN(C)C (stereo not drawn) [Compound 42]
Particle size (nm) [1]: 152.04 nm | Particle size dispersity (PDI) [1]: 0.07 | Encapsulation efficiency (%) [2]: 71.95%
